The record followed here is US11925629B2, “Heterocyclic inhibitors of ERK1 and ERK2 and their use in the treatment of cancer” (Asana Biosciences, LLC, priority 2015, dated 2024).

Common to all, as to assay type: cell-based, human
Assay [1] concerns HT-29 (colorectal carcinoma, B-RafV600E) cells. Briefly: Cell proliferation (Alamar Blue) assay, HT-29. Conditions: Homo sapiens, HT-29, HT29 cells. The gist of the method: (§1)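 5000 cells/well, 16-24 h attach; cpd 0.0005-10 uM (3-fold dilns) x 72 h, 37° C./5% CO2; Alamar Blue 1× 1-3 h; fluor 540/590 nm; IC50, variable-slope sigmoid.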
Background: Resazurin is reduced to fluorescent resorufin, in cell work by metabolically active cells.

Assay [2] concerns phosphorylation of RSK1(S380) (the downstream target of ERK1/2). Kind of assay: Phospho-RSK1(S380) ELISA assay in HT-29 cells. Conditions: Homo sapiens, HT-29, HT29 cells, phospho-RSK1(S380); read-out: Mechanistic Cell Assay RSK1 Phos HT29 IC50. The gist of the method: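 HT-29 colorectal carcinoma cells (B-RafV600E), plated overnight at 37° C./5% CO2, were treated with compound dilutions for 2 h. Lysates were analysed by phospho-RSK1(Ser380) sandwich ELISA with absorbance at 450 nm. IC50 came from a sigmoidal variable-slope dose-response fit.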

Assay [3] has as its system HCT116 (colorectal carcinoma, K Ras G13D) cells. Kind of assay: Cell proliferation (Alamar Blue) assay, HCT116. Particulars: Homo sapiens, HCT-116, HCT116 cells. In outline: as §1

Bounds are passed on as bounds.

In the case of `Cc1cnc(NC2CCOCC2)nc1-n1cnc(C(=O)NCc2cccc(Cl)c2CO)c1` [Cmpd 93, N-(3-chloro-2-(hydroxy-methyl)benzyl)-1-(5-methyl-2-((tetrahydro-2H-pyran-4-yl)amino)-pyrimidin-4-yl)-1H-imidazole-4-carboxamide], the IC50 in assay [1], in assay [2] and in assay [3] was not above 100 nM each time.
Consider `CC[C@H](CO)Nc1cc(-n2cnc(C(=O)N[C@H](CO)c3cccc(Cl)c3)c2)ccn1` [Cmpd 105, N-((S)-1-(3-chlorophenyl)-2-hydroxy-ethyl)-1-(2-(((R)-1-hydroxy-butan-2-yl)amino)pyridin-4-yl)-1H-imidazole-4-carboxamide], for which the figures for the IC50 in assay [1], in assay [2] and in assay [3] were more than 2500 nM, 100 to 250 nM and more than 2500 nM, respectively.
For the molecule `O=C(NC(CO)c1cccc(Cl)c1)c1cn(-c2cc(Nc3ccccc3)ncc2Cl)cn1` (stereo not drawn) [Cmpd 106, 1-(5-chloro-2-(phenyl-amino)pyridin-4-yl)-N-(1-(3-chlorophenyl)-2-hydroxy-ethyl)-1H-imidazole-4-carboxamide], the IC50 – broadly, the concentration at which inhibition is half-maximal – is 500 to 2500 nM in assay [1], 100 to 250 nM in assay [2] and more than 2500 nM in assay [3].
Turning to `Cc1cnc(Nc2ccc3c(c2)OC(F)(F)O3)nc1-n1ccc(C(=O)NC(CN)c2cccc(Cl)c2)c1` (stereo not drawn) [Cmpd 136, N-(2-amino-1-(3-chloro-phenyl)ethyl)-1-(2-((2,2-difluoro-benzo[d][1,3]dioxol-5-yl)amino)-5-methyl-pyrimidin-4-yl)-1H-pyrrole-3-carboxamide], the IC50 was 500 to 2500 nM in assay [1], more than 2500 nM in assay [2] and 500 to 2500 nM in assay [3].
For `Cc1cnc(Nc2ccc(F)cc2)nc1-n1cc(C(=O)NC(CO)c2ccccc2)nc1C` (stereo not drawn) [Cmpd 153, 1-(2-((4-fluoro-phenyl)amino)-5-methyl-pyrimidin-4-yl)-N-(2-hydroxy-1-phenylethyl)-2-methyl-1H-imidazole-4-carboxamide], the IC50 in assay [1], in assay [2] and in assay [3] was more than 2500 nM each time.
Consider `Cc1cnc(Nc2ccc(F)cc2)cc1-n1ccc(C(=O)NC(CN)c2cccc(Cl)c2)c1` (stereo not drawn) [Cmpd 159, N-(2-amino-1-(3-chloro-phenyl)ethyl)-1-(2-((4-fluoro-phenyl)amino)-5-methyl-pyridin-4-yl)-1H-pyrrole-3-carboxamide], for which the IC50 in assay [1], in assay [2] and in assay [3] was 500 to 2500 nM in each case.
Take `O=C(NC(CO)c1cccc(Cl)c1)c1cn(-c2ccnc(Nc3ccc4c(c3)CCO4)c2)cn1` (stereo not drawn) [Cmpd 163, N-(1-(3-chloro-phenyl)-2-hydroxy-ethyl)-1-(2-((2,3-dihydro-benzofuran-5-yl)amino)pyridin-4-yl)-1H-imidazole-4-carboxamide]: the figures for the IC50 in assay [1], in assay [2] and in assay [3] were 500 to 2500 nM, 100 to 250 nM and more than 2500 nM, respectively.
For `Cc1cnc(NC2CCOCC2)nc1-n1cnc(C(=O)N[C@H](CN)c2cccc(Cl)c2)c1` [Cmpd 225a] the same measures were not above 100 nM, not above 100 nM and not above 100 nM.
In the case of `Cc1cnc(N[C@H]2CCOC2)nc1-n1cnc(C(=O)N[C@H](CO)c2cccc(Cl)c2)c1` [Compound 192, N—((S)-1-(3-Chlorophenyl)-2-hydroxyethyl)-1-(5-methyl-2-(((S)-tetrahydrofuran-3-yl)amino)pyrimidin-4-yl)-1H-imidazole-4-carboxamide], the IC50 was 250 to 500 nM in assay [1], 250 to 500 nM in assay [2] and more than 2500 nM in assay [3].
For `Cc1cnc(NC2CCOCC2)nc1-n1cnc(C(=O)NC(CO)c2cccc(Cl)c2)c1` (stereo not drawn) [Compound 201, N-(1-(3-chlorophenyl)-2-hydroxyethyl)-1-(5-methyl-2-((tetrahydro-2H-pyran-4-yl)amino)pyrimidin-4-yl)-1H-imidazole-4-carboxamide], the results for the IC50 in assay [1], in assay [2] and in assay [3] were not above 100 nM, 100 to 250 nM and 500 to 2500 nM, respectively.
`Cc1cnc(NC2CCOCC2)nc1-n1cnc(C(=O)N[C@H](CO)c2cccc(Cl)c2)c1` [Compound 211, (S)—N-(1-(3-chlorophenyl)-2-hydroxyethyl)-1-(5-methyl-2-((tetrahydro-2H-pyran-4-yl)amino)pyrimidin-4-yl)-1H-imidazole-4-carboxamide]: the IC50 in assay [1] was not above 100 nM; in assay [2] it was not above 100 nM; in assay [3] it was 100 to 250 nM.
Consider `O=C(Nc1cnn(-c2ccnc(Nc3ccccc3)n2)c1)N[C@H](CO)c1cccc(Cl)c1` [Example 12, (S)-1-(1-(3-chlorophenyl)-2-hydroxy-ethyl)-3-(1-(2-(phenyl-amino)pyrimidin-4-yl)-1H-pyrazol-4-yl) urea], for which the IC50 in assay [1], in assay [2] and in assay [3] was more than 2500 nM each time.
On to `CN(C(=O)Nc1cnn(-c2ccnc(NC3CC3)n2)c1)[C@H](CO)c1ccccc1` [Example 18, (S)-3-(1-(2-(cyclopropyl-amino)pyrimidin-4-yl)-1H-pyrazol-4-yl)-1-(2-hydroxy-1-phenylethyl)-1-methylurea], for which the IC50 in assay [1], in assay [2] and in assay [3] was more than 2500 nM in each case.
As to `O=C(Nc1cnn(-c2ccnc(Nc3ccc4c(c3)OCO4)n2)c1)N[C@H](CO)c1cccc(Cl)c1` [Example 21, (S)-1-(1-(2-(benzo[d][1,3]dioxol-5-ylamino)-pyrimidin-4-yl)-1H-pyrazol-4-yl)-3-(1-(3-chlorophenyl)-2-hydroxyethyl) urea], the IC50 in assay [1], in assay [2] and in assay [3] was more than 2500 nM each time.
For the molecule `Cc1cnc(Nc2cccnc2)nc1-n1cc(NC(=O)N[C@H](CO)c2cccc(Cl)c2)cn1` [Example 23, (S)-1-(1-(3-chlorophenyl)-2-hydroxy-ethyl)-3-(1-(5-methyl-2-(pyridin-3-yl-amino)pyrimidin-4-yl)-1H-pyrazol-4-yl)urea], the IC50 in assay [1] is 500 to 2500 nM; in assay [2] it was more than 2500 nM; in assay [3] it was more than 2500 nM.
Regarding `Cc1cnc(Nc2ccc(F)cc2Cl)nc1-n1ccc(C(=O)NC(CO)c2cccc(Cl)c2)c1` (stereo not drawn) [Example 31, 1-(2-((2-chloro-4-fluorophenyl)amino)-5-methyl-pyrimidin-4-yl)-N-(1-(3-chlorophenyl)-2-hydroxy-ethyl)-1H-pyrrole-3-carboxamide], the figures for the IC50 in assay [1], in assay [2] and in assay [3] were 250 to 500 nM, 500 to 2500 nM and 500 to 2500 nM, respectively.
Turning to `Cc1cnc(Nc2ccc(F)cc2Cl)nc1-n1ccc(C(=O)NC(CO)c2ccccc2)c1` (stereo not drawn) [Example 32, 1-(2-((2-chloro-4-fluorophenyl)amino)-5-methyl-pyrimidin-4-yl)-N-(2-hydroxy-1-phenylethyl)-1H-pyrrole-3-carboxamide], the values for the IC50 in assay [1], in assay [2] and in assay [3] were more than 2500 nM, 500 to 2500 nM and more than 2500 nM, respectively.
Take `C#Cc1cccc(Nc2nccc(-n3cc(NC(=O)N[C@H](CO)c4cccc(Cl)c4)cn3)n2)c1` [Example 38, (S)-1-(1-(3-chlorophenyl)-2-hydroxy-ethyl)-3-(1-(2-((3-ethynyl-phenyl)amino)pyrimidin-4-yl)-1H-pyrazol-4-yl)urea]: the IC50 in assay [1], in assay [2] and in assay [3] was more than 2500 nM in each case.
Consider `Cc1cnc(Nc2ccc3c(c2)OCO3)nc1-n1ccc(C(=O)NC(CO)c2cccc(Cl)c2)c1` (stereo not drawn) [Example 42, 1-(2-(benzo[d][1,3]dioxol-5-ylamino)-5-methyl-pyrimidin-4-yl)-N-(1-(3-chloro-phenyl)-2-hydroxy-ethyl)-1H-pyrrole-3-carboxamide], for which the half-inhibitory concentration (IC50) in assay [1] lay within 250 to 500 nM; in assay [2] it was 500 to 2500 nM; in assay [3], 250 to 500 nM.
As for `Cc1cnc(Nc2ccc3c(c2)OCO3)nc1-n1ccc(C(=O)NC(CO)c2ccccc2)c1` (stereo not drawn) [Example 47, 1-(2-(benzo[d][1,3]dioxol-5-ylamino)-5-methyl-pyrimidin-4-yl)-N-(2-hydroxy-1-phenylethyl)-1H-pyrrole-3-carboxamide], the figures for the IC50 in assay [1], in assay [2] and in assay [3] were 100 to 250 nM, 250 to 500 nM and 250 to 500 nM, respectively.
With `Cc1cnc(Nc2ccc3c(c2)OCO3)nc1-n1cnc(C(=O)N[C@H](CO)c2cccc(Cl)c2)c1` [Example 48, (S)-1-(2-(benzo[d][1,3]dioxol-5-ylamino)-5-methyl-pyrimidin-4-yl)-N-(1-(3-chloro-phenyl)-2-hydroxy-ethyl)-1H-imidazole-4-carboxamide], the IC50 in assay [1] fell in the range of 250 to 500 nM; in assay [2], 250 to 500 nM; in assay [3], 500 to 2500 nM.
For the molecule `Cc1cnc(Nc2ccc3c(c2)OCO3)nc1-n1ccc(C(=O)NC(CO)c2cc(Cl)cc(Cl)c2)c1` (stereo not drawn) [Example 58, 1-(2-(benzo[d][1,3]dioxol-5-ylamino)-5-methyl-pyrimidin-4-yl)-N-(1-(3,5-dichloro-phenyl)-2-hydroxy-ethyl)-1H-pyrrole-3-carboxamide], the IC50 in assay [1] is 500 to 2500 nM; in assay [2], 500 to 2500 nM; in assay [3], more than 2500 nM.
Take `Cc1cnc(Nc2ccc3c(c2)OCO3)nc1-n1ccc(C(=O)N[C@H](CO)Cc2ccccc2)c1` [Example 59, (S)-1-(2-(benzo[d][1,3]dioxol-5-ylamino)-5-methyl-pyrimidin-4-yl)-N-(1-hydroxy-3-phenyl-propan-2-yl)-1H-pyrrole-3-carboxamide]: the concentration for half-maximal inhibition (IC50) in assay [1], in assay [2] and in assay [3] was 250 to 500 nM throughout.
For `Cc1cnc(Nc2ccc3c(c2)OCO3)nc1-n1ccc(C(=O)N[C@H](CO)c2ccccc2)c1` [Example 60, (S)-1-(2-(benzo[d][1,3]dioxol-5-ylamino)-5-methyl-pyrimidin-4-yl)-N-(2-hydroxy-1-phenylethyl)-1H-pyrrole-3-carboxamide], the IC50 in assay [1] was not above 100 nM; in assay [2], not above 100 nM; in assay [3], 100 to 250 nM.
